Measured values taken from article PMC13095408, “DBeQ derivative targets vacuolar protein sorting 4 functions in cancer cells and suppresses tumor growth in mice” (The Journal of Pharmacology and Experimental Therapeutics, 2025).

What was measured:
VPS4B [1] = biological target: T1, VPS4B (Homo sapiens, UniProt O75351); experiment: VPS4B cellular thermal shift assay (CETSA); assay type: cell-based; parameters: endogenous in cells; host or cells: U2OS; settings: 5 μM DBeQ, 1 hour, starved U2OS cells
T1 sequence (O75351 1-444): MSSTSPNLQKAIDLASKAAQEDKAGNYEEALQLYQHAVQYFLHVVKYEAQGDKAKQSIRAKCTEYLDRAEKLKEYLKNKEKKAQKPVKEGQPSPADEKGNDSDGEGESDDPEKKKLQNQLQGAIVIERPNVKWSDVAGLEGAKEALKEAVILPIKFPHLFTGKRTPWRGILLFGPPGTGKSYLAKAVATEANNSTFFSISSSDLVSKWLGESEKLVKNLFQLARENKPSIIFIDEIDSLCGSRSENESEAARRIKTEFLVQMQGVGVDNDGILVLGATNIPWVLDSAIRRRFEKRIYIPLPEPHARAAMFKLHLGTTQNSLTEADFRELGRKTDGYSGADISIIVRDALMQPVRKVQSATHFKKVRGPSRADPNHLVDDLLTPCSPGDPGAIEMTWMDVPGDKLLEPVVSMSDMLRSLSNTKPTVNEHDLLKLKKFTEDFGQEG
Protocol: The VPS4B CETSA was performed as previously described with modification ([Jafari et al, 2014]). In 10-cm dishes, near-confluent U2OS cells were rinsed with 1× DPBS and treated with the indicated compounds in acclimatized SM for 1 hour at 37 °C (0.1% DMSO). Cells were trypsinized, pelleted at 300 × g for 5 minutes, and washed with 1× PBS. After repeat pelleting at 300 × g for 5 minutes, the cells were resuspended in 1× PBS with protease inhibitor cocktail (1:250) and aliquoted into PCR strips with 20 μL per tube. PCR strips for each treatment were heated on a temperature gradient for 3 minutes using a thermal cycler (Bio-Rad Laboratories), followed by incubation at RT for 3 minutes. […] To normalize protein loading for SDS-PAGE, the soluble protein concentration of each 37 °C sample was quantified via the Pierce BCA assay ([…]), and a volume equal to 10 μg of protein was used for all samples from the same treatment. […] Signals were acquired with the Odyssey CLx (LI-COR) and quantified via densitometry using Image Studio version 6 (LI-COR). The remaining VPS4B levels were calculated by first obtaining the ratio of VPS4B:ACTB band intensities of each sample and then normalizing these ratios to that of the respective 37 °C sample. […]

recombinant human VCP [2] = biological target: T2, recombinant human VCP; experiment: VCP ATPase activity, EnzChek Phosphate assay; assay type: biochemical; settings: 0.5 μM enzyme
T2 construct: His (N); host or cells: Escherichia coli BL21(DE3)
T2 sequence (P46462 2-806 limits assumed): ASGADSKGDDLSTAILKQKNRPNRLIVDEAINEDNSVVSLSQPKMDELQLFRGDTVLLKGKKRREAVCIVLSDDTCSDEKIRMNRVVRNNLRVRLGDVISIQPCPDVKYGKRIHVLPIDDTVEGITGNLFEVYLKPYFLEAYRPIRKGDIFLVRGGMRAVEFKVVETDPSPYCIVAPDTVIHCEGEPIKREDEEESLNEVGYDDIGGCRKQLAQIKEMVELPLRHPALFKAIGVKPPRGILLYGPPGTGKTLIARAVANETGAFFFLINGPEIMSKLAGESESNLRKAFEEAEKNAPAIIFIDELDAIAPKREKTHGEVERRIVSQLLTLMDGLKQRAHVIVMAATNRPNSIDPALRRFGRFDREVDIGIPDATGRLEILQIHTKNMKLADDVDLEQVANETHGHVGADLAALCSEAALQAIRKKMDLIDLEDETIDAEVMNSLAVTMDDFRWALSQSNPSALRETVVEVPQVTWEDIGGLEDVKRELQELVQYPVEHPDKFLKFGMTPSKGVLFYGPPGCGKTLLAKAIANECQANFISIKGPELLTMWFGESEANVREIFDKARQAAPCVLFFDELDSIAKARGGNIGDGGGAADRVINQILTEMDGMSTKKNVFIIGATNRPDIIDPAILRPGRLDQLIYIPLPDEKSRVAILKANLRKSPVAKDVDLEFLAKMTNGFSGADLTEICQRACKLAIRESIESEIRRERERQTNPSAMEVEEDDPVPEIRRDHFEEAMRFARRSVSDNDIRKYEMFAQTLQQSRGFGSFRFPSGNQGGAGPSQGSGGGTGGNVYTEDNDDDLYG
Protocol: (§1) VPS4B and VCP ATPase activities were measured using the EnzChek Phosphate assay for the quantification of released phosphate. Assay buffers were based on literature precedents ([Cupido et al, 2019], [2021]) as follows: VPS4B buffer (20 mM HEPES-KOH, pH 7.4, 25 mM KOAc, 2 mM MgCl2, 5 mM (NH4)2SO4, 0.5 mM CaCl2, 2.5 mM DTT, 0.1 mg/mL BSA, 0.005% v/v Triton X-100), VCP buffer (20 mM HEPES-NaOH, pH 7.4, 20 mM NaCl, 10 mM MgCl2, 5 mM (NH4)2SO4, 0.5 mM CaCl2, 2.5 mM DTT, 0.1 mg/mL BSA, 0.005% v/v Triton X-100). In black clear-bottom 384-well plates, 22.5 μL of 5% DMSO or 40× test compounds diluted in the respective assay buffer was added to each well. ATPases were diluted to 1 μM in the respective buffers containing 2× EnzChek Phosphate assay coupling reagents of 400 μM MESG and 2 U of PNP, then 25 μL was added to each well. Plates were mixed at 1000 rpm for 30 minutes at RT while being protected from light. The reaction was initiated by adding 2.5 μL of 20 mM MgATP or water followed by mixing at 1200 rpm for 30 seconds at RT. Plates were measured at 360 nm using a CLARIOstar plate reader (BMG LABTECH) for 20 minutes at 37 °C. ATPase activity was calculated as the amount of phosphate released over a 5-minute interval under linear initial velocity conditions. The remaining ATPase activity was calculated by normalizing compound-treated activity values to the DMSO control. IC50 was calculated by fitting normalized values to a sigmoidal dose-response curve with Hill slope = −1 using Graph Pad Prism 10.0.
(§2) To identify VPS4i, we developed enzyme- and cell-based VPS4 functional assays to serve as VPS4i-screening platforms. For the enzyme-based assay, we used the colorimetric EnzChek Phosphate assay that detects free phosphate with the advantage of continuous measurement of ATP hydrolysis over time. […] Due to the high sequence and structural similarity of AAA-ATPases, we also established a VCP ATPase assay to evaluate hit selectivity. […] For the cell-based assay, our approach was based on how VPS4 inhibition causes the accumulation of ESCRT-III ([Babst et al, 1998]; [Katoh et al, 2003]). We used an N-terminal GFP-tagged CHMP4B reporter system because it is the most abundant ESCRT-III subunit ([Katoh et al, 2004]; [Teis et al, 2008]). Our aim was to test compounds under short-term serum and amino acid starvation to stimulate ESCRT activity for easier detection of inhibitors ([Takahashi et al, 2018], [2019]). […] Overall, we established 2 systems for VPS4i screening, a VPS4B ATPase activity assay and a GFP-CHMP4B accumulation cell-based assay.

recombinant human VCP [3] = biological target: T3, recombinant human VCP (Rattus norvegicus, UniProt P46462); experiment: VCP ATPase activity, EnzChek Phosphate assay; assay type: biochemical; settings: screened at 5 µM; mean ± S.D., Supplemental Table 2
T3 construct: His (N); host or cells: Escherichia coli BL21(DE3)
T3 sequence (P46462 2-806 limits assumed): as above
Protocol: as §1, §2

[4] = test system: GFP-CHMP4B-expressing U2OS cells; experiment: GFP-CHMP4B accumulation cell-based assay (high-content microscopy)
How it was run: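 GFP-CHMP4B U2OS cells were cultured overnight, stained, then treated in SM with compounds (0.1% DMSO or 0.1% DMSO/0.1% ethanol vehicle final). High-content imaging used a 20× NA .70 objective at set intervals, ≥300 cells/well over 3 fields/well.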

VPS4B [5] = biological target: T1, VPS4B; experiment: VPS4B ATPase activity, EnzChek Phosphate assay; assay type: biochemical; parameters: His tag (pET28a vector-encoded) (N); made in house; host or cells: Escherichia coli BL21(DE3)
How it was run: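 EnzChek phosphate release (MESG/PNP, 360 nm) with ATPases at 1 μM (diluted stock) in HEPES pH 7.4 buffers with MgCl2, CaCl2, DTT, BSA, Triton; 30 min compound preincubation at RT, started with MgATP, read 20 min at 37 °C. Activity from 5-min linear initial rate, normalized to DMSO; IC50 from Hill slope −1 fit.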

U2OS cells = experiment: Immunoblot analysis of VPS4- and VCP-mediated pathways (autophagy, ER stress, ERAD); assay type: cell-based; settings: 5 μM DBeQ, 0.6 μM CB-5083, 1 μM 4-107, complete media
Protocol: Whole-cell lysates were prepared in radio-immunoprecipitation buffer (25 mM Tris-HCl, pH 8.0, 150 mM NaCl, 1 mM EDTA, 1% v/v IGEPAL CA-630, 0.5% w/v sodium deoxycholate, and 1% v/v SDS) containing protease (1:250) and phosphatase inhibitor cocktails (1:100) then resolved via SDS-PAGE and probed with the indicated antibodies. Signals were acquired with the Odyssey CLx (LI-COR) for fluorescence or Odyssey XF (LI-COR) for chemiluminescence detection and visualized in Image Studio version 6 (LI-COR).
VPS4 is essential for autophagy and loss of VPS4 function inhibits autophagic flux ([Takahashi et al, 2018]; [Zhen et al, 2019]). Meanwhile, VCP is required for endoplasmic reticulum-associated degradation (ERAD; [Rabinovich et al, 2002]) where VCP inhibition results in the accumulation of ubiquitinated proteins and induction of ER stress ([Weihl et al, 2006]; [Bastola et al, 2016]).

[6] = test system: i-shVPS4A-expressing crVPS4B U2OS cells; experiment: VPS4 synthetic cell death in i-shVPS4A-expressing crVPS4B cells (YOYO-3); assay type: cell-based; settings: 1 μg/mL Dox; 20 μM z-VAD-fmk, 50 μM z-IETD-fmk
Protocol: To measure caspase activity, cells cultured in white opaque-bottom 384-well plates were incubated in the presence or absence of 1 μg/mL Dox for 24 hours. Caspase-Glo 8 or 3/7 reagent was then added 1:1 and allowed to incubate for 90 minutes at RT followed by luminescence measurement using the CLARIOstar microplate reader (BMG LABTECH). Signals had background luminescence subtracted and then normalized to the respective Dox-untreated i-GFP-expressing parental controls to obtain relative CASP8-like LETDase or CASP3/7-like DEVDase activities. For live-cell quantification, the cells seeded on black clear-bottom 96-well plates were incubated with the indicated compounds (0.1% to 0.3% DMSO final) in the presence of 100 nM YOYO-3, a cell-impermeant DNA-binding fluorescent probe that stains membrane integrity-impaired, dead cells. […] Phase and fluorescence images were obtained at the indicated intervals using the IncuCyte S3 Live-Cell Analysis System (Essen BioScience; 10× objective) and then analyzed using the Cell-by-Cell Analysis module (Essen BioScience; 9600-0031) of IncuCyte S3 Software (Essen BioScience; Version 2019B Rev2). To quantify the percentage of dead GFP-expressing cells, the GFP and YOYO-3 double-positive cell population was divided by the total GFP-positive cell population. […]

Compound	change of VPS4B thermal stability (Tagg) (VPS4B [1])	IC50 (recombinant human VCP [2]) [µM]	VCP ATPase (% DMSO) (recombinant human VCP [3])	accumulation of GFP-CHMP4B ([4]; 2 and 5 μM DBeQ, starved cells, 2 hours)	GFP-CHMP4B (% 4-107) ([4]; screened at 1 µM, mean ± S.D., Supplemental Table 2)	GFP-CHMP4B (% 4-107) ([4]; screened at 1 μM, starvation media, 1 hour, foci intensity per cell normalized to 4-107, mean ± SD, Table 1)	IC50 (VPS4B [5]; 0.5 μM enzyme) [µM]	VPS4B ATPase (% DMSO) (VPS4B [5]; remaining ATPase activity, screened at 5 μM, mean ± SD, Table 1)	VPS4B ATPase (% DMSO) (VPS4B [5]; screened at 5 µM, mean ± S.D., Supplemental Table 2)	ER stress (HSPA5, ATF4) (U2OS cells)	autophagy (SQSTM1, LC3-II) (U2OS cells)	rescue of VPS4 synthetic cell death [6]
c1ccc(CNc2nc(NCc3ccccc3)c3ccccc3n2)cc1 [DBeQ]	subtle thermal destabilization of VPS4B that was not statistically significant	15.9 ± 4.9	74.64 ± 6.01	dose-dependent accumulation of GFP-CHMP4B	8.93 ± 3.51	8.93 ± 3.51	3.9 ± 1.2	41.96 ± 7.53	41.96 ± 7.53	mildly induced ER stress	time-dependently inhibited autophagy	
z-IETD-fmk												partially rescued
z-VAD-fmk												partially rescued
